Reference: patent US6545182B2, “Methods and compositions for modulating alpha adrenergic receptor activity” (Allergan Sales, Inc., priority 2000, dated 2003)

Assays:
[1] = target: T1, alpha 2C adrenergic receptor (Homo sapiens, UniProt P18825); assay: RSAT (Receptor Selection and Amplification Technology) assay, alpha 2C; assay type: cell-based; conditions: for EC50: NIH-3T3 cells cotransfected with receptor and Gq/i5; for efficacy or intrinsic activity (value in parentheses) Alpha 2C: ratio of maximal effect to that of standard full agonist brimonidine
T1 construct: expressed in transfected cells; host or cells: NIH-3T3 cells, transient cotransfection by calcium phosphate
T1 sequence (P18825 1-462): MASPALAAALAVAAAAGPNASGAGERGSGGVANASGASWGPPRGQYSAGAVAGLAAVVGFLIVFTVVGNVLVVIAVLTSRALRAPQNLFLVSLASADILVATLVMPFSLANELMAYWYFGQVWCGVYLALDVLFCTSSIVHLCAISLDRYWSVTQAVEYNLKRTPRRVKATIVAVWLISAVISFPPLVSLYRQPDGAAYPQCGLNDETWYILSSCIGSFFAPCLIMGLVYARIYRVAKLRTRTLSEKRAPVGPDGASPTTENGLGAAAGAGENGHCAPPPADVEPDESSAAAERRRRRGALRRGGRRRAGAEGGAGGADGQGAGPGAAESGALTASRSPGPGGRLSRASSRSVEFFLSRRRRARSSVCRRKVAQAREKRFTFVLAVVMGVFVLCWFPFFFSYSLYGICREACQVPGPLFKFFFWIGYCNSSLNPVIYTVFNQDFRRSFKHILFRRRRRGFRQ
Experimental: (§1) Activity was measured using the RSAT (Receptor Selection and Amplification Technology) assay, developed by Receptor Technologies, Inc. of Winooski, Vt. (now Acadia Pharmaceuticals of San Diego, Calif.), adapted for use with recombinant alpha2 adrenergic receptors in collaboration with Allergan. The assay measures receptor-mediated loss of contact inhibition that results in selective proliferation of receptor-containing cells in a mixed population of confluent cells. The increase in cell number is assessed with an appropriate transfected marker gene such as β-galactosidase, the activity of which can be easily measured in a 96-well format. Receptors that activate the G protein, Gq, elicit this response. Alpha2 receptors, which normally couple to Gi, activate the RSAT response when coexpressed with a hybrid Gq protein that has a Gi receptor recognition domain, called Gq/i5.
(§2) The assay is conducted as follows. NIH-3T3 cells are plated at a density of 2×10^6 cells in 15 cm dishes and maintained in Dulbecco's modified Eagle's medium supplemented with 10% calf serum. One day later, cells are cotransfected by calcium phosphate precipitation with mammalian expression plasmids encoding p-SV-β-galactosidase (5-10 μg), receptor (1-2 μg) and G protein (1-2 μg). 40 μg salmon sperm DNA may also be included in the transfection mixture to increase transfection efficiency. Fresh media is added on the following day and 1-2 days later, cells are harvested and frozen in 50 assay aliquots. Transfectant cells are thawed and 100 μl added to 100 μl aliquots of various concentrations of drugs in triplicate in 96-well dishes. Incubations continue 72-96 hr at 37°. After washing with phosphate-buffered saline, β-galactosidase enzyme activity is determined by adding 200 μl of the chromogenic substrate (consisting of 3.5 mM o-nitrophenyl-β-D-galactopyranoside and 0.5% of the non-ionic surfactant nonidet P-40 in phosphate buffered saline), incubating overnight at 30° and measuring optical density at 420 nm. The absorbency is a measure of enzyme activity, which depends on cell number and reflects a receptor-mediated cell proliferation. The EC50 and maximal effect of each drug at each alpha2 receptor is determined. The efficacy or intrinsic activity is calculated as a ratio of the maximal effect of the drug to the maximal effect of a standard full agonist for each receptor subtype. Brimonidine, also called UK14304, is used as the standard agonist for the alpha2A, alpha2B and alpha2C receptors. The RSAT assay is also discussed in Messier et al. (1995) High throughput assays of cloned adrenergic, muscarinic, neurokinin and neurotrophin receptors in living mammalian cells, Pharmacol. Toxicol. 76:308-11; see also Conklin et al. (1993) Substitution of three amino acids switches receptor specificity of Gqα to that of Giα, Nature 363:274-6; Both of these papers are incorporated by reference herein.

[2] = target: T2, alpha 2A adrenergic receptor (Homo sapiens, UniProt P08913); assay: RSAT (Receptor Selection and Amplification Technology) assay, alpha 2A; assay type: cell-based; conditions: NIH-3T3 cells cotransfected with receptor and Gq/i5
T2 construct: expressed in transfected cells; host or cells: NIH-3T3 cells, transient cotransfection by calcium phosphate
T2 sequence (P08913 1-465): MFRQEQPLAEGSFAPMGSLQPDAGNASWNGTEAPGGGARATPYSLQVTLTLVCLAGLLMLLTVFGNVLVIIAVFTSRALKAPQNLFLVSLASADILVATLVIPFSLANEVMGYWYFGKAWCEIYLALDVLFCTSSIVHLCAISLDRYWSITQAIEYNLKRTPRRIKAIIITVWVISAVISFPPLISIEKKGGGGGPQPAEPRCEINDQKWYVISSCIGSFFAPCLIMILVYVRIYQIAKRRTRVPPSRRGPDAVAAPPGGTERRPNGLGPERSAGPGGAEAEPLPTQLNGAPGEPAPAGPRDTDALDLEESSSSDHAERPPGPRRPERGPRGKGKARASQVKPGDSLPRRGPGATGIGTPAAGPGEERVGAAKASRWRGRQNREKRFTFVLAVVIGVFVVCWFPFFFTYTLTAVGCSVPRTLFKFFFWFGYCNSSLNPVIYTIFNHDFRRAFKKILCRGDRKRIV
Experimental: as §1, §2

[3] = target: T3, alpha 2B adrenergic receptor (Homo sapiens, UniProt P18089); assay: RSAT (Receptor Selection and Amplification Technology) assay, alpha 2B; assay type: cell-based; conditions: for EC50: NIH-3T3 cells cotransfected with receptor and Gq/i5; for efficacy or intrinsic activity (value in parentheses) Alpha 2B: ratio of maximal effect to that of standard full agonist brimonidine
T3 construct: expressed in transfected cells; host or cells: NIH-3T3 cells, transient cotransfection by calcium phosphate
T3 sequence (P18089 1-450): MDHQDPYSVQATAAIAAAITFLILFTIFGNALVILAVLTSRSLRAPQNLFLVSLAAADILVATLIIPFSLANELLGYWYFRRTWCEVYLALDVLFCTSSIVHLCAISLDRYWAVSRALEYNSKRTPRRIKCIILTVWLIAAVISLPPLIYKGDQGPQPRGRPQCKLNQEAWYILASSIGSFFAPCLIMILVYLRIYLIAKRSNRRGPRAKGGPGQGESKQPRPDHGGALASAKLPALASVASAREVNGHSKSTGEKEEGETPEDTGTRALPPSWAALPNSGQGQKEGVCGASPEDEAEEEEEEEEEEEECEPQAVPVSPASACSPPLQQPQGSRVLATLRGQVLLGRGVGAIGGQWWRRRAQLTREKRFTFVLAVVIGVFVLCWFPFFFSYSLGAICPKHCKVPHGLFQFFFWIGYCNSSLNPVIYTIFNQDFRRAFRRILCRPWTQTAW
Experimental: as §1, §2

[4] = system: rats with ligated L5 and L6 spinal nerves; assay: rat spinal nerve ligation allodynia model (chronic pain); assay type: in vivo; conditions: i.p., doses up to 3 mg/kg, 30 minutes after drug
Experimental: (§3) The physiological activity of these compounds was tested using four models: a rat locomotor model to assess sedation, an assay of cardiovascular activity in monkeys, a rat thermal paw withdrawal assay (Dirig et al., J. Neurosci. Methods 76:183-191 (1997) to test the alleviation of acute pain, and the rat spinal nerve ligation allodynia model (Kim and Chung, Pain 50:355-363 (1992) to assess the alleviation of neuropathic pain and central sensitization typical of chronic pain. As is known to those of skill in the art, these tests are established pharmacological methods for determining sedation, cardiovascular effects, acute pain and chronic pain, respectively, of pharmaceutical agents.
A model for chronic pain (in particular peripheral neuropathy such as causalgia) involves the surgical ligation of the L5 (and optionally the L6) spinal nerves on one side in experimental animals. Rats recovering from the surgery gain weight and display a level of general activity similar to that of normal rats. However, these rats develop abnormalities of the foot, wherein the hindpaw is moderately everted and the toes are held together. More importantly, the hindpaw on the side affected by the surgery appears to become sensitive to pain from low-threshold mechanical stimuli, such as that producing a faint sensation of touch in a human, within about 1 week following surgery. This sensitivity to normally non-painful touch is called “tactile allodynia” and lasts for at least two months. The response includes lifting the affected hindpaw to escape from the stimulus, licking the paw and holding it in the air for many seconds. None of these responses is normally seen in the control group.
Rats are anesthetized before surgery. The surgical site is shaved and prepared either with betadine or Novacaine. Incision is made from the thoracic vertebra Xlll down toward the sacrum. Muscle tissue is separated from the spinal vertebra (left side) at the L4-S2 levels. The L6 vertebra is located and the transverse process is carefully removed with a small rongeur to expose the L4-L6 spinal nerves. The L5 and L6 spinal nerves are isolated and tightly ligated with 6-0 silk thread. The same procedure is done on the right side as a control, except no ligation of the spinal nerves is performed.
A complete hemostasis is confirmed, then the wounds are sutured. A small amount of antibiotic ointment is applied to the incised area, and the rat is transferred to the recovery plastic cage under a regulated heat-temperature lamp. On the day of the experiment, at least seven days after the surgery, six rats per test group are administered the test drugs by intraperitoneal (i.p.) injection or oral gavage. For i.p. injection, the compounds are formulated in approximately 50% DMSO and given in a volume of 1 ml/kg body weight. FORMULA 2 was tested at doses ranging between 1 and 300 μg /kg, FORMULA 3 was tested at doses between 0.1 and 3 mg/kg and FORMULA 4 was tested at doses of 0.3 and 3 mg/kg. FORMULA 2 was also administered by oral gavage at doses of 0.1, 0.3 and 1 mg/kg body weight to 24-hour fasted rats. A volume equal to 1 ml/kg body weight of an appropriate concentration (i.e. 1 mg/ml for a 1 mg/kg dose) of FORMULA 2 formulated in approximately 50% DMSO was injected using an 18-gauge, 3-inch gavage needle that is slowly inserted through the esophagus into the stomach.
Tactile allodynia is measured prior to and 30 minutes after drug administration using von Frey hairs that are a series of fine hairs with incremental differences in stiffness. Rats are placed in a plastic cage with a wire mesh bottom and allowed to acclimate for approximately 30 minutes. The von Frey hairs are applied perpendicularly through the mesh to the mid-plantar region of the rats' hindpaw with sufficient force to cause slight buckling and held for 6-8 seconds. The applied force has been calculated to range from 0.41 to 15.1 grams. If the paw is sharply withdrawn, it is considered a positive response. […]

[5] = system: Sprague-Dawley rats; assay: rat locomotor model to assess sedation; assay type: in vivo; conditions: 3 mg/kg i.p., 30 minutes after injection, vs vehicle controls
Experimental: as §3
To test sedation, six male Sprague-Dawley rats were given up to 3 mg/kg of each compound in a saline or DMSO vehicle by intraperitoneal injection (i.p.). Sedation was graded 30 minutes following administration of the drug by monitoring locomotor skills as follows.
The Sprague-Dawley rats are weighed and 1 ml/kg body weight of an appropriate concentration (i.e. 3 mg/ml for a final dose of 3 mg/kg) drug solution is injected intraperitoneally. FORMULA 3 is formulated in approximately 10% DMSO and FORMULA 2 and FORMULA 4 are formulated in 50% DMSO. The results are compared to 29 historical controls that were injected with 1 ml/kg saline or 50% DMSO. Rat activity is then determined 30 minutes after injection of the drug solution. Rats are placed in a dark covered chamber and a digicom analyzer (Omnitech Electronic) quantitates their exploratory behavior for a five-minute period. The machine records each time the rat interrupts an array of 32 photoelectric beams in the X and Y orientation.

OCCNC(=S)NCc1c(Cl)cccc1Cl
EC50 [1]: ≥ 210000 nM | EC50 [2]: ≥ 210000 nM | EC50 [3]: 380 nM | efficacy or intrinsic activity (value in parentheses) Alpha 2B [3]: 0.93

OCCNC(=S)NCc1cc(Br)cc(Br)c1F
EC50 [1]: 1410 nM | efficacy or intrinsic activity (value in parentheses) Alpha 2C [1]: 0.58 | EC50 [2]: ≥ 210000 nM | EC50 [3]: 116 nM | efficacy or intrinsic activity (value in parentheses) Alpha 2B [3]: 1.23

OCCNC(=S)NCc1cc(Br)c(F)c(F)c1F
EC50 [1]: ≥ 210000 nM | EC50 [2]: ≥ 210000 nM | EC50 [3]: 512 nM | efficacy or intrinsic activity (value in parentheses) Alpha 2B [3]: 1.07

Cc1cc(CNC(=S)NCCO)c(F)c(F)c1F
EC50 [1]: ≥ 210000 nM | EC50 [2]: ≥ 210000 nM | EC50 [3]: 120 nM | efficacy or intrinsic activity (value in parentheses) Alpha 2B [3]: 0.92

OCCNC(=S)NCc1cc(Br)cc(Cl)c1F
EC50 [1]: > 2000 nM | EC50 [2]: ≥ 210000 nM | EC50 [3]: 117 nM | efficacy or intrinsic activity (value in parentheses) Alpha 2B [3]: 1.13

OCCNC(=S)NCc1ccccc1F [FORMULA 4]
analgesic activity (tactile allodynia) [4]: no analgesic activity | reduction in the exploratory activity of the rats (sedation) [5]: none of the compounds caused a statistically significant reduction

OCCNC(=S)NCc1cccc(Cl)c1F [drawing 20]
EC50 [1]: 457 nM | efficacy or intrinsic activity (value in parentheses) Alpha 2C [1]: 0.37 | EC50 [2]: ≥ 210000 nM | EC50 [3]: 16 nM | efficacy or intrinsic activity (value in parentheses) Alpha 2B [3]: 0.82
